Key:
[1] = test system: d-amphetamine induced hyperactivity in rats; test: d-Amphetamine-induced hyperactivity in rats; assay type: in vivo; details: positive control dose, previously observed
Experimental: Effect of a Novel Test Compound and Xanomeline on d-Amphetamine-Induced Hyperactivity in Rats
The aim of the study is to examine the effect of a novel test compound on d-amphetamine induced hyperactivity in rats. Schizophrenia is a complex multifactorial disease that cannot be fully represented by a single experimental procedure. Antipsychotic-like behaviour was assessed in rats by the inhibition of hyperactivity (or hyperlocomotion) elicited by d-amphetamine. This procedure is sensitive to clinically relevant dopamine receptor antagonists and is therefore considered suitable for comparing muscarinic agonists that influence dopaminergic signalling. […] Statistical analysis typically involved three-way analysis of covariance or robust regression with treatment, day and rack as factors and activity during the 30 minutes prior to treatment as a covariate, followed by appropriate multiple comparison tests. A P value of <0.05 was considered statistically significant and is marked accordingly in all subsequent figures.

[2] = molecular target: T1, human muscarinic M4 receptor (Homo sapiens, UniProt P08173); test: Alphascreen Surefire phospho-ERK1/2 functional assay, M4; assay type: cell-based; details: for EC50: read-out: pEC50 M4 (converted); for Emax: CHO, read-out: M4 % Emax cf. ACh, CHO cells stably expressing human M4; for Emax / M4 % Emax cf. ACh: Emax relative to ACh
T1 construct: expressed in transfected cells
T1 sequence (P08173 1-479): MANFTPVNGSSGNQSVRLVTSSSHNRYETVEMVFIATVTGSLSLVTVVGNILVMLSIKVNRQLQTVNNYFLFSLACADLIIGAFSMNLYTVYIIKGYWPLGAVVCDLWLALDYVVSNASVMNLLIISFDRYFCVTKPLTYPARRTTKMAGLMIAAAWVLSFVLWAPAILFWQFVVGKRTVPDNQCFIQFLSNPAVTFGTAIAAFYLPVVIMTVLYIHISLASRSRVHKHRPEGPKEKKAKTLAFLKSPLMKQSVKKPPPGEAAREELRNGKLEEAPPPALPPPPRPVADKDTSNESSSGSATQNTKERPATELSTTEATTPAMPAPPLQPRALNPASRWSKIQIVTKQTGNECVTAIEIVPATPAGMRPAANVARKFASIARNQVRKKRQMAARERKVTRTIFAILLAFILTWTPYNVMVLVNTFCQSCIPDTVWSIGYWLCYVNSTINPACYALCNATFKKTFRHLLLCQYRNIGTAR
Experimental: (§1) CHO cells stably expressing the human muscarinic M1, M2, M3 or M4 receptor were plated (25K/well) onto 96-well tissue culture plates in MEM-alpha+10% dialysed FBS. Once adhered, cells were serum-starved overnight. Agonist stimulation was performed by the addition of 5 μL agonist to the cells for 5 min (37° C.). Media was removed and 50 μL of lysis buffer added. After 15 min, a 4 μL sample was transferred to 384-well plate and 7 μL of detection mixture added. Plates were incubated for 2 h with gentle agitation in the dark and then read on a PHERAstar plate reader.
(§2) pEC50 and Emax figures were calculated from the resulting data for each receptor subtype.

[3] = molecular target: human muscarinic M3 receptor (Homo sapiens, UniProt P20309); test: Alphascreen Surefire phospho-ERK1/2 functional assay, M3; details: for Emax: CHO, read-out: M3 % Emax cf. ACh, CHO cells stably expressing human M3; for Emax / M3 % Emax cf. ACh: Emax relative to ACh; for M3 % Emax cf. ACh / pEC50 M3: CHO cells stably expressing human M3; for pEC50 M3: phospho-ERK1/2
Experimental: as §1, §2

[4] = molecular target: T2, human muscarinic M2 receptor (Homo sapiens, UniProt P08172); test: Alphascreen Surefire phospho-ERK1/2 functional assay, M2; details: for Emax: CHO, read-out: M2 % Emax cf. ACh, CHO cells stably expressing human M2; for Emax / M2 % Emax cf. ACh: Emax relative to ACh; for EC50: pEC50 M2, CHO cells stably expressing human M2; for EC50 / pEC50 M2: phospho-ERK1/2; for M2 % Emax cf. ACh / pEC50 M2: CHO cells stably expressing human M2
T2 sequence (P08172 1-466): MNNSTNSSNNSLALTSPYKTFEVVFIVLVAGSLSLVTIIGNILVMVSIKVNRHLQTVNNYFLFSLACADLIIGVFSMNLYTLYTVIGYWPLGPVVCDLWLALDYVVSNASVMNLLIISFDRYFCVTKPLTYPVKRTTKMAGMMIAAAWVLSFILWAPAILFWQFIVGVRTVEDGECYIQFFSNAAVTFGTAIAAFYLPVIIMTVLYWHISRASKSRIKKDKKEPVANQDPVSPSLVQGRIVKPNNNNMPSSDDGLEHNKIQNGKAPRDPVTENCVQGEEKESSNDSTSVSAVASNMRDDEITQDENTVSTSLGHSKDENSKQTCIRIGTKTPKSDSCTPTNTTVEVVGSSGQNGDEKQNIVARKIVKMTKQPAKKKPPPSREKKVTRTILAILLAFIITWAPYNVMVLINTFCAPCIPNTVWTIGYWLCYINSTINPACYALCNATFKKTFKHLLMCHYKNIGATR
Experimental: as §1, §2

[5] = molecular target: T3, human muscarinic M1 receptor (Homo sapiens, UniProt P11229); test: Alphascreen Surefire phospho-ERK1/2 functional assay, M1; assay type: cell-based; details: for EC50 / M1 % Emax cf. ACh: CHO cells stably expressing human M1; for EC50: phospho-ERK1/2, read-out: pEC50 M1 (converted); for Emax: CHO, read-out: M1 % Emax cf. ACh, CHO cells stably expressing human M1; for Emax / M1 % Emax cf. ACh: Emax relative to ACh
T3 construct: expressed in transfected cells
T3 sequence (P11229 1-460): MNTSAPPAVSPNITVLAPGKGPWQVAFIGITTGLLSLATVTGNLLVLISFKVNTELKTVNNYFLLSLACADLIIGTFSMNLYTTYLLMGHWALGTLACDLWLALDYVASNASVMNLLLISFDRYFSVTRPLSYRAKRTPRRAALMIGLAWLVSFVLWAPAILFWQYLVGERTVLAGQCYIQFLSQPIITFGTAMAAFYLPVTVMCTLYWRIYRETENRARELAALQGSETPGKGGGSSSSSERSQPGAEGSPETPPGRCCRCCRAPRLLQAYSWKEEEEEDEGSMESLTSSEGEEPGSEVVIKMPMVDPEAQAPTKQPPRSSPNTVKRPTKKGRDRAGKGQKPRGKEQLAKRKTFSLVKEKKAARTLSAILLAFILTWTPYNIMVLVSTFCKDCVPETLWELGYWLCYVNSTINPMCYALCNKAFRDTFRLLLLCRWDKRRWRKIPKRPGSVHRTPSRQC
Experimental: as §1, §2

[6] = CHO cells stably expressing human M4, phospho-ERK1/2
[7] = CHO cells stably expressing human M4

human muscarinic M3 receptor, sequence (P20309 whole entry): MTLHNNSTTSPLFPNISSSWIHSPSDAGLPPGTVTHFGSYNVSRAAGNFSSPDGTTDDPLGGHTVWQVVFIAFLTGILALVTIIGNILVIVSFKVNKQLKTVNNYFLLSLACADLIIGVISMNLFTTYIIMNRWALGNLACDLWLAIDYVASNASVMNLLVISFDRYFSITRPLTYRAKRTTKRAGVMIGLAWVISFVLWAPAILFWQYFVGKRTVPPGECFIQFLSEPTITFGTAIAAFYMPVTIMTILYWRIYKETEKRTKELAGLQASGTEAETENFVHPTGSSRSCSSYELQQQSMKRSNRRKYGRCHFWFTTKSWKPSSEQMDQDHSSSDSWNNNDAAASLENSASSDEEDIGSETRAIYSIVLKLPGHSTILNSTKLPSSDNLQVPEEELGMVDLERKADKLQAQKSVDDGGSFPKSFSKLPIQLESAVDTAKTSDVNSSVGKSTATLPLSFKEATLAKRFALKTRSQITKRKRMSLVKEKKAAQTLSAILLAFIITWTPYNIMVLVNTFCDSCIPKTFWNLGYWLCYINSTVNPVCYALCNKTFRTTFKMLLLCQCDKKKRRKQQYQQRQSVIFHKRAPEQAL

| Structure (SMILES) | d-amphetamine induced hyperactivity [1] | EC50 [2, 6] [nM] | Emax [2] [%] | EC50 [3] [nM] | Emax [3] [%] | Emax [4] [%] | EC50 [4] [nM] | EC50 [5] [nM] | Emax [5] [%] | M4 % Emax cf. ACh [2, 7] | M3 % Emax cf. ACh [3] | pEC50 M3 [3] | M2 % Emax cf. ACh [4] | pEC50 M2 [4] | M1 % Emax cf. ACh [5] | pEC50 M4 [2, 6] |
| --- | --- | --- | --- | --- | --- | --- | --- | --- | --- | --- | --- | --- | --- | --- | --- | --- |
| CCCCCCOc1nsnc1C1=CCCN(C)C1 [xanomeline] | significantly reduce |  |  |  |  |  |  |  |  |  |  |  |  |  |  |  |
| [2H]C([2H])([2H])OC(=O)N1CCC2(CC(N3CCC4(CC3)CNC(=O)O4)C2)C1 (single isomer, unassigned) [4-2 Isomer 2] |  | 200 | 76 | > 20000 | 42 | 13 | > 20000 | 251 | 113 |  |  |  |  |  |  |  |
| CCCN1C(=O)OC2(CCN(C3CC4(CCN(C(=O)OCC)C4)C3)CC2)C1CC (single isomer, unassigned) [4-23 Isomer 4] |  | 10 |  |  |  |  |  | 316 |  | (109) % | (3) % | <4.7 | (8) % | <4.7 | (96) % |  |
| CCCN1C(=O)CC2(CCN(C3CC4(CCN(C(=O)OCC)C4)C3)CC2)N1CC (single isomer, unassigned) [6-9 Isomer 2] |  | 39.8 | 84 | > 20000 | 50 | 1 | > 20000 | > 20000 | 17 |  |  |  |  |  |  |  |
| CCC1NC(=O)CC12CCN(C1CC3(CCN(C(=O)OC)C3)C1)CC2 (single isomer, unassigned) [3-4 Isomer 3] |  | 25.1 |  | > 20000 | 24 |  | > 20000 | 79.4 |  | (71) % |  |  | (8) % |  | (101) % |  |
| CCOC(=O)N1CC2(CCC(N3CCC4(CC3)OC(=O)NC4(C)C)C2)C1 (single isomer, unassigned) [8-3 Isomer 2] |  | 3.16 | 39 | > 20000 | 4 | 2 | > 20000 | > 20000 | 12 |  |  |  |  |  |  |  |
| CCCN1C(=O)OC2(CCN(C3CC4(CCN(C(=O)OCC)C4)C3)CC2)C1CC (single isomer, unassigned) [4-23 Isomer 3] |  | 50.1 |  | > 20000 | 4 | 8 | > 20000 | 316 |  | (32) % |  |  |  |  | (88) % |  |
| CCOC(=O)N1CCC2(CC(N3CCC4(CNC(=O)C4)C(F)C3)C2)C1 (single isomer, unassigned) [3-9 Isomer 2] |  | > 20000 | 47 | > 20000 | 14 | 4 | > 20000 | 794 | 62 |  |  |  |  |  |  |  |
| CCOC(=O)N1CCC2(CC(N3CCC4(CC3)OC(=O)N(C3CC3)C4CC)C2)C1 (mixture of isomers) [4-47 mixture of diastereomers] |  | 63.1 | 106 | > 20000 | 7 | 7 | > 20000 | 1000 | 86 |  |  |  |  |  |  |  |
| CCOC(=O)N1CCC2(CC(N3CCC4(CC3)CC(=O)NN4Cc3ccccc3)C2)C1 (single isomer, unassigned) [6-6 Isomer 2] |  | 316 |  | > 20000 | 4 | 3 | > 20000 | 158 |  | 26) % |  |  |  |  | (71) % |  |
| COC(=O)N1CCC2(CC(N3CCC4(CC3)CC(=O)NC4Cc3ccccc3)C2)C1 (single isomer, unassigned) [3-7 Isomer 2] |  | 79.4 | 57 | > 20000 | 14 | 11 | > 20000 | 25.1 | 101 |  |  |  |  |  |  |  |
| CCOC(=O)N1CC2(CCC(N3CCC4(CC3)OC(=O)NC4CC)C2)C1 (mixture of isomers) [8-1 mixture of diastereomers] |  | 2 | 70 | > 20000 | 2 | 0 | > 20000 | 10 | 70 |  |  |  |  |  |  |  |
| CCOC(=O)N1CCC2(CC(N3CCC4(CC3)CC(=O)N(CC)N4CC)C2)C1 (single isomer, unassigned) [6-8 Isomer 2] |  | 63.1 | 103 | > 20000 | 100 | 10 | > 20000 | 3160 | 55 |  |  |  |  |  |  |  |
| CCOC(=O)N1CC2(CC(N3CCC4(CC3)OC(=O)NC4CC)C2)C1 (single isomer, unassigned) [2-1 Isomer 1] |  |  |  |  |  |  |  | 251 |  | (117) % | (9) % | <4.7 | (15) % | <4.7 | (107) % | 6.9 |

Source: US10167284B2, “Spirocyclic compounds as agonists of the muscarinic M1 receptor and/or M4 receptor” (HEPTARES THERAPEUTICS LIMITED, priority 2015, dated 2019)
